# Assay results reported in PubChem BioAssay (NCI).
#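 Interpolation was linear, between the two tested concentrations surrounding the appropriate level; five concentrations were tested over 48 hours in 96-well plates. The concentration for 50% growth inhibition is given as GI50. The concentration for full growth arrest is given as TGI.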
# Experiments:
# Assay in all cases: NCI-60 cell line screen, 48 h
# [1] = test system: U251 CNS
# [2] = test system: NCI-H460 lung
# [3] = test system: K-562 leukemia
# [4] = test system: RXF 393 renal
# [5] = test system: CCRF-CEM leukemia
# [6] = test system: HOP-92 NSCLC
# [7] = test system: SK-OV-3 ovarian
# [8] = test system: SF-295 CNS
# [9] = test system: UACC-257 melanoma
# [10] = test system: A498 renal
# [11] = test system: SN12C renal
# [12] = test system: SK-MEL-28 melanoma
# [13] = test system: SNB-19 CNS
# [14] = test system: SW-620 colon
# [15] = test system: DU-145 prostate
# [16] = test system: OVCAR-5 ovarian
# [17] = test system: SK-MEL-2 melanoma
# [18] = test system: HT29 colon
# [19] = test system: UO-31 renal
# [20] = test system: OVCAR-3 ovarian
# [21] = test system: HOP-62 NSCLC
# [22] = test system: MOLT-4 leukemia
# [23] = test system: CAKI-1 renal
# [24] = test system: NCI-H226 lung
# [25] = test system: MDA-MB-231 breast
# [26] = test system: HCT-15 colon
# [27] = test system: OVCAR-8 ovarian
# [28] = test system: ACHN renal
# [29] = test system: LOX IMVI melanoma
# [30] = test system: MALME-3M melanoma
# [31] = test system: TK-10 renal
# [32] = test system: PC-3 prostate
# [33] = test system: MDA-MB-435
# [34] = test system: UACC-62 melanoma
# [35] = test system: RPMI-8226 leukemia
# [36] = test system: HCC-2998 colon
# [37] = test system: 786-0 renal
# [38] = test system: M14 melanoma
# [39] = test system: OVCAR-4 ovarian
# [40] = test system: SF-539 CNS
# [41] = test system: SF-268 CNS
# [42] = test system: EKVX NSCLC
# [43] = test system: HL-60(TB) leukemia
# [44] = test system: COLO 205 colon
# [45] = test system: KM12 colon
# [46] = test system: A549 NSCLC
# [47] = test system: NCI/ADR-RES ovarian
# [48] = test system: IGROV1 ovarian
# [49] = test system: NCI-H23 lung
# [50] = test system: MCF7 breast
# [51] = test system: HCT-116 colon
# [52] = test system: SK-MEL-5 melanoma
# [53] = test system: HS 578T breast
# [54] = test system: BT-549 breast
# [55] = test system: T-47D breast
# [56] = test system: SNB-75 CNS
compound,measurement,setting,value
Cn1cc(-c2ccc3nnc(C(F)(F)c4ccc5ncccc5c4)n3n2)cn1,GI50,[1],58.4 µM
same,TGI,[1],> 100 µM
same,GI50,[2],59.6 µM
same,TGI,[2],> 100 µM
same,GI50,[3],78.1 µM
same,TGI,[3],> 100 µM
same,GI50,[4],25.9 µM
same,TGI,[4],> 86.6 µM
same,GI50,[5],98.7 µM
same,TGI,[5],> 100 µM
same,GI50,[6],10.6 µM
same,TGI,[6],> 88.9 µM
same,GI50,[7],> 86.4 µM
same,TGI,[7],> 100 µM
same,GI50,[8],3.82 µM
same,TGI,[8],> 100 µM
same,GI50,[9],> 100 µM
same,TGI,[9],> 100 µM
same,GI50,[10],24.8 µM
same,TGI,[10],> 100 µM
same,GI50,[11],35.4 µM
same,TGI,[11],> 100 µM
same,GI50,[12],> 85.8 µM
same,TGI,[12],> 100 µM
same,GI50,[13],53.4 µM
same,TGI,[13],> 100 µM
same,GI50,[14],> 95.8 µM
same,TGI,[14],> 100 µM
same,GI50,[15],53.9 µM
same,TGI,[15],> 100 µM
same,GI50,[16],71.9 µM
same,TGI,[16],> 100 µM
same,GI50,[17],50.6 µM
same,TGI,[17],> 100 µM
same,GI50,[18],63.6 µM
same,TGI,[18],> 100 µM
same,GI50,[19],28.4 µM
same,TGI,[19],> 100 µM
same,GI50,[20],80.5 µM
same,TGI,[20],> 100 µM
same,GI50,[21],56.4 µM
same,TGI,[21],> 100 µM
same,GI50,[22],52.5 µM
same,TGI,[22],> 100 µM
same,GI50,[23],31.4 µM
same,TGI,[23],> 100 µM
same,GI50,[24],58.5 µM
same,TGI,[24],> 100 µM
same,GI50,[25],34.2 µM
same,TGI,[25],> 100 µM
same,GI50,[26],73 µM
same,TGI,[26],> 100 µM
same,GI50,[27],66.1 µM
same,TGI,[27],> 100 µM
same,GI50,[28],32.8 µM
same,TGI,[28],> 100 µM
same,GI50,[29],55.5 µM
same,TGI,[29],> 100 µM
same,GI50,[30],64.1 µM
same,TGI,[30],> 100 µM
same,GI50,[31],32.1 µM
same,TGI,[31],> 100 µM
same,GI50,[32],85 µM
same,TGI,[32],> 100 µM
same,GI50,[33],57.8 µM
same,TGI,[33],> 100 µM
same,GI50,[34],66.1 µM
same,TGI,[34],> 100 µM
same,GI50,[35],88.6 µM
same,TGI,[35],> 100 µM
same,GI50,[36],> 100 µM
same,TGI,[36],> 100 µM
same,GI50,[37],46 µM
same,TGI,[37],> 100 µM
same,GI50,[38],> 100 µM
same,TGI,[38],> 100 µM
same,GI50,[39],38.5 µM
same,TGI,[39],> 100 µM
same,GI50,[40],47.5 µM
same,TGI,[40],> 100 µM
same,GI50,[41],50.7 µM
same,TGI,[41],> 100 µM
same,GI50,[42],> 83.3 µM
same,TGI,[42],> 100 µM
same,GI50,[43],> 100 µM
same,TGI,[43],> 100 µM
same,GI50,[44],59.6 µM
same,TGI,[44],> 100 µM
same,GI50,[45],43.6 µM
same,TGI,[45],> 100 µM
same,GI50,[46],60.2 µM
same,TGI,[46],> 100 µM
same,GI50,[47],62.2 µM
same,TGI,[47],> 100 µM
same,GI50,[48],53.8 µM
same,TGI,[48],> 100 µM
same,GI50,[49],66 µM
same,TGI,[49],> 100 µM
same,GI50,[50],69.4 µM
same,TGI,[50],> 100 µM
same,GI50,[51],61.9 µM
same,TGI,[51],> 100 µM
same,GI50,[52],43.2 µM
same,TGI,[52],> 100 µM
same,GI50,[53],34.2 µM
same,TGI,[53],> 100 µM
same,GI50,[54],86.8 µM
same,TGI,[54],> 100 µM
same,GI50,[55],40.8 µM
same,TGI,[55],> 100 µM
same,GI50,[56],22.2 µM
same,TGI,[56],> 92.4 µM
